Test results taken from US20060148646A1, “Controlled release fertilizers containing calcium sulfate and processes for making same” (priority 2004, published 2006).

Experiments:
[1] = Controlled Release Soil Test (irrigated soil burial test); assay type: physicochemical
Source text: To measure the relative solubilities of the products in soil, an irrigated soil burial test (“Controlled Release Soil Test”) was devised such that granules could be retrieved for measurement of their nitrogen content. The following is a description of the test.
Controlled Release Soil Test
Procedure for Controlled Release Soil Test
1. Screen the sample to obtain −6+7 Tyler mesh granules for the test.
2. Label a freezer container with the test description.
3. Place the freezer container on the 1200 g balance and tare out.
4. Place 300 g of potting soil with a 40% moisture content into the container and record the weight.
5. Over the soil place two (2) pieces of fiberglass mesh with 14 meshes to the inch and 1/16 inch openings.
6. Tare out the container with the soil and fiberglass mesh screens.
7. Spread 5 grams of −6+7 Tyler mesh granules over the screen in a single layer and record the weight.
8. Place a large square of fiberglass mesh over the granules, with a stainless steel screen cut to fit over it, so that the shape of the container has been mirrored.
9. Once this is shaped, tare out the container and add 150 g of soil and record the weight.
10. Repeat this process for each sample to be tested (in triplet if possible).
11. After all containers are completed, fill a mist spray bottle with de-ionized water and prime.
12. Tare out the weight of the primed mist bottle.
13. Mist 4 g of water into each container and immediately place the lid on container and seal.
14. After the fertilizer granules have been submerged in a humid soil environment for the allotted time (9 hours, 24 hours, and 3 days), the 150 g of soil is removed from the container.
15. Weigh to the nearest 0.0001 g in aluminum weigh pan and tare out.
16. Gently remove the two pieces of fiberglass mesh, which contains the remaining fertilizer granules.
17. Transfer the granules to the aluminum weigh pan and record the weight of the fertilizer granules.
18. Place the fertilizer granules in a laboratory oven to dry at low temperature (50° C.) for 13 hours.
19. Remove the dry sample from the oven, weigh to the nearest 0.0001 g and record weight.
20. Place the dry fertilizer sample into a 125 mL plastic sample bottle containing 20 g of de-ionized water.
21. Allow the sample to dissolve for 3 hours.
22. Place approximately 1 ml aliquot of the sample solution onto the sample stage of a refractometer (e.g., Abbe Refractometer).
23. Record the refractive index and temperature of the solution.
24. Calculate the percent urea retained from the original fertilizer sample.
To measure the slow or controlled release of the present compositions a Controlled Release Soil Test was employed, described as follows. […]

[2] = test system: Hybrid “419” Bermudagrass; test: Visual turf quality rating, golf course fairway (Example 18); assay type: in vivo
Protocol: (§1) The effect of nitrogen type was evaluated on the quality of hybrid bermudagrass grown under golf course conditions. Five fertilizer compositions were tested which included […] of the present invention, urea and Scotts Turf Builder. Nitrogen sources were applied individually at a rate of 1 lb N/1,000 ft^2 on Apr. 19, 2004. Field test plots were rated weekly for visual quality and scanned for digital image analysis.
(§2) Research was conducted on a fairway at Pleasant Valley Country Club in Little Rock, Arkansas. The hybrid “419” was bermudagrass was grown and was mowed at 0.5 inches height and clippings were not collected. Nitrogen sources were applied at a rate of 1 lb N/1,000 ft^2 on Apr. 19, 2004. Plots were 3 ft.×6 ft. Air temperatures on April 19th were 65-75° F. Turf quality ratings were made weekly by a single evaluator. Quality ratings considered turf growth and color. A rating of 6 was considered the minimum acceptable turf; a rating of 9 was not considered favorable from a management standpoint since growth was excessive and required frequent mowing. A visual rating of 8 would be considered excellent. Plots were also evaluated weekly using a digital image analysis. Digital images were taken with a Nikon CoolPix 880 camera with a shutter speed of 1/30 sec. and an aperture of f/2.8. Images were downloaded to a personal computer for subsequent analysis. Ratings were terminated when the nitrogen treated plots could not be visually separated from the control. Treatments consisted of 4 single plot replications. The experimental design was a completely randomized design.

[3] = test system: Hybrid “419” Bermudagrass; test: Digital image analysis, measured color hue (Example 18); assay type: in vivo; design: unit not given here; conditions: mean of 4 repetitions; fertilizer applied Apr. 19, 2004
Protocol: as §1, §2

[4] = 1 lb N/1,000 ft^2 applied Apr. 19, 2004

With `N.N.O=S(=O)(O)O` [AS, (NH4)2SO4] the “Control Release Soil Test 9 HR (nitrogen retained)” value ([1]; ammonium sulfate based granulation products, 9 hours) was 56.8%, the “Control Release Soil Test 24 HR (nitrogen retained)” value ([1]; ammonium sulfate based granulation products, 24 hours) was 30.0% and the “Control Release Soil Test 3 DAY (nitrogen retained)” value ([1]; ammonium sulfate based granulation products, 3 days) was 0%.
With `NC(N)=O` [Urea, Carbamide] the “time to complete dissolution in the Controlled Release Soil Test” value [1] was ≤ 9 h, the “Visual Turf Quality Jun. 1, 2004” value [2, 4] was 7.7 cde and the “Visual Turf Quality Jun. 7, 2004” value [2, 4] was 7.7bcde. For the same compound, the “Visual Turf Quality Jun. 14, 2004” value [2, 4] was 7.6bcd, the “Visual Turf Quality Jun. 21, 2004” value [2, 4] was 7.5bc and the “Visual Turf Quality May 3, 2004” value [2, 4] was 7.5abcd. For the same compound, the “Visual Turf Quality May 9, 2004” value [2, 4] was 7.3bcd, the “Visual Turf Quality May 16, 2004” value [2, 4] was 7.5abcd and the “Visual Turf Quality May 24, 2004” value [2, 4] was 7.7bcdef. For the same compound, the “Visual Turf Quality Apr. 19, 2004” value ([2]; day of application, 1 lb N/1,000 ft^2, 6 = minimum acceptable, 8 excellent) was 6.5, the “Hue Jun. 1, 2004” value [3] was 31.589 and the “Hue Jun. 7, 2004” value [3] was 27.101. The “Hue Jun. 14, 2004” value [3] was 28.324, the “Hue Jun. 21, 2004” value [3] was 25.750 and the “Hue May 3, 2004” value [3] was 29.085. The “Hue May 10, 2004” value [3] was 30.702, the “Hue May 17, 2004” value [3] was 30.920 and the “Hue May 24, 2004” value [3] was 29.943.
